# Source: ChEMBL document CHEMBL3352260, “Identification and development of biphenyl substituted iminosugars as improved dual glucosylceramide synthase/neutral glucosylceramidase inhibitors” (J Med Chem, 2014)
# Target: Maltase-glucoamylase (Homo sapiens, UniProt O43451)
# Experiment: Inhibition of intestinal maltase (unknown origin)
# Sequence of Maltase-glucoamylase (O43451 whole entry): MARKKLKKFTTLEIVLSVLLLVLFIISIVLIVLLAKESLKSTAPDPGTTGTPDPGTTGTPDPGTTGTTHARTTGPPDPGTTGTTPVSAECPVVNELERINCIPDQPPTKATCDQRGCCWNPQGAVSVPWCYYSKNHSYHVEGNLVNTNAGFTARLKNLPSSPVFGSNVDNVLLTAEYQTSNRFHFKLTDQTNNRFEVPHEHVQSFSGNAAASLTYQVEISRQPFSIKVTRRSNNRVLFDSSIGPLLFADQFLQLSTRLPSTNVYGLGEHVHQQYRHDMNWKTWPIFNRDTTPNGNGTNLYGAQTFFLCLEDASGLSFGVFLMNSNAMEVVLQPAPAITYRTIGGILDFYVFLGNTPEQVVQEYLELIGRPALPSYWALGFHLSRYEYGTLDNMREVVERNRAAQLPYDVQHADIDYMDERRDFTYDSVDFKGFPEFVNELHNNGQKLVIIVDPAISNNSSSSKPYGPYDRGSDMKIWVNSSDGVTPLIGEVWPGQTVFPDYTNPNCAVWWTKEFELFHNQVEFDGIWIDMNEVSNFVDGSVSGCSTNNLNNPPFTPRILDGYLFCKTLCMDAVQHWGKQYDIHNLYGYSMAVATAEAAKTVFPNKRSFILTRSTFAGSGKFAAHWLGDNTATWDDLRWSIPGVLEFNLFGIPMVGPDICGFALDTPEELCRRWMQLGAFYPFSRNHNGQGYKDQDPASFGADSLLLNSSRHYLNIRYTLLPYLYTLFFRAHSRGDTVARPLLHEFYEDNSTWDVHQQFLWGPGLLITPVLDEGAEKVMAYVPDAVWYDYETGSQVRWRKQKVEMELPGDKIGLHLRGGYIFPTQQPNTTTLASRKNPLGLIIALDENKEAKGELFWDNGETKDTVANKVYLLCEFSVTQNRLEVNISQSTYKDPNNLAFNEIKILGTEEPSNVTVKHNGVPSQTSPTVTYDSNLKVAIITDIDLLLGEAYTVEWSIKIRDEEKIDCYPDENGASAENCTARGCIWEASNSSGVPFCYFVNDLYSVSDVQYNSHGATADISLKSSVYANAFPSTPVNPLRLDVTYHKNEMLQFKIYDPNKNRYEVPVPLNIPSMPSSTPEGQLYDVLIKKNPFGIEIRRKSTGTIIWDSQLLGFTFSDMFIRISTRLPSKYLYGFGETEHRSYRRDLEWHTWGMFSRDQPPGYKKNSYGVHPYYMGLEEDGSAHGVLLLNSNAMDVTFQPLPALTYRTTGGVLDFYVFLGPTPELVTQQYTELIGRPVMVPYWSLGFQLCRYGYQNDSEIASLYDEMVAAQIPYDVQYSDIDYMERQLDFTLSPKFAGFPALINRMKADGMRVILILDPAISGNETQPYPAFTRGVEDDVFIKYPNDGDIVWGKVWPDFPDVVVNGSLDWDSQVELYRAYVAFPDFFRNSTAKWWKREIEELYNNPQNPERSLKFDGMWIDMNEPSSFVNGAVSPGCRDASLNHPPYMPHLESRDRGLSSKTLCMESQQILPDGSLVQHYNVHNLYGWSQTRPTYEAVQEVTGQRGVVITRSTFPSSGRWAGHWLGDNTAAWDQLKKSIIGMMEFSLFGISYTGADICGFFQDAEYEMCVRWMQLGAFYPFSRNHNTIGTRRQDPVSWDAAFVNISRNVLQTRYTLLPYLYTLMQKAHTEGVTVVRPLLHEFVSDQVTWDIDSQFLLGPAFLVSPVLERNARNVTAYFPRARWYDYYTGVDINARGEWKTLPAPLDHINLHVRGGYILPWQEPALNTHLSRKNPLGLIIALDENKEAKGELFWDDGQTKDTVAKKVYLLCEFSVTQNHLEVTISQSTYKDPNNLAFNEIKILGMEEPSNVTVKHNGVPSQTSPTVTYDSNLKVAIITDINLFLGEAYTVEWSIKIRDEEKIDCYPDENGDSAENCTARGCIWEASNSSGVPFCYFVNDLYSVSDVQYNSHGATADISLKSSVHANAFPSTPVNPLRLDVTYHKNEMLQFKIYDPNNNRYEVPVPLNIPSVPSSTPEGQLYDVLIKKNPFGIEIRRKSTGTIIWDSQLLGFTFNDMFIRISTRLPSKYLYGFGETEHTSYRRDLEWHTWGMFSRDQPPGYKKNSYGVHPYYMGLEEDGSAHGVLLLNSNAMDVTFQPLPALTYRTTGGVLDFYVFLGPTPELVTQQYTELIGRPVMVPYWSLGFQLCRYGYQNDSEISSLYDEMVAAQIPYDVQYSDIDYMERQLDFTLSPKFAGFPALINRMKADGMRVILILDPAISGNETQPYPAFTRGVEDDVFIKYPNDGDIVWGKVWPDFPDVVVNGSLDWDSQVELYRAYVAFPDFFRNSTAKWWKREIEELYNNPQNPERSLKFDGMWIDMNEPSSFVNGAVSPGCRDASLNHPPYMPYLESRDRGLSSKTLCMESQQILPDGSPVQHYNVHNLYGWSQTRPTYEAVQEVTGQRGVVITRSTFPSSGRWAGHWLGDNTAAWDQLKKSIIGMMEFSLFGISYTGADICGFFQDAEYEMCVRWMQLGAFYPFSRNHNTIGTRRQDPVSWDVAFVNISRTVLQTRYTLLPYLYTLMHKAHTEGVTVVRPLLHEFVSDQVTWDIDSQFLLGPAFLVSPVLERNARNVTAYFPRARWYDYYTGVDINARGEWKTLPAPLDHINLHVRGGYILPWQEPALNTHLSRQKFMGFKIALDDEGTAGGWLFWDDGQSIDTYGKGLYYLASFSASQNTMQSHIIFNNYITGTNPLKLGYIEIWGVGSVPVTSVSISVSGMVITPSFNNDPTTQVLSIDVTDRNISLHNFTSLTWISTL
row,Compound,IC50 [µM]
1,OC[C@H]1[C@@H](O)[C@H](O)[C@@H](O)CN1CCCCCOCc1ccc(-c2ccccc2)c(F)c1 [NIZUBAGLUSTAT],> 100
2,OC[C@H]1[C@@H](O)[C@H](O)[C@@H](O)CN1CCCCCOCc1ccc(-c2ccccc2)cc1F,> 100
3,OC[C@H]1[C@@H](O)[C@H](O)[C@@H](O)CN1CCCCCOCc1ccc(-c2ccccc2)c(C(F)(F)F)c1,> 100
4,OC[C@@H]1[C@@H](O)[C@H](O)[C@@H](O)CN1CCCCCOCc1ccc(-c2ccccc2)c(F)c1,3
5,OC[C@H]1[C@@H](O)[C@H](O)[C@@H](O)CN1CCCC(F)(F)COCc1ccc(-c2ccccc2)cc1,> 100
6,OC[C@H]1[C@@H](O)[C@H](O)[C@@H](O)CN1CCCCCOCc1ccc(-c2ccccc2)cc1C(F)(F)F,> 100
7,C[C@@H](OCCCCCN1C[C@H](O)[C@@H](O)[C@H](O)[C@@H]1CO)c1ccc(-c2ccccc2)cc1,> 100
8,OC[C@@H]1[C@@H](O)[C@H](O)[C@@H](O)CN1CCCCCOCc1cccc(-c2ccccc2)c1,1.5
9,OC[C@@H]1[C@@H](O)[C@H](O)[C@@H](O)CN1CCCCCOCc1ccccc1-c1ccccc1,1.5
10,OC[C@@H]1[C@@H](O)[C@H](O)[C@@H](O)CN1CCCCCOCc1ccc(-c2ccccc2)cc1C(F)(F)F,8
11,OC[C@H]1[C@@H](O)[C@H](O)[C@@H](O)CN1CCCCCOCc1ccccc1-c1ccccc1,> 100
12,OC[C@@H]1[C@@H](O)[C@H](O)[C@@H](O)CN1CCCCCOCc1ccc(-c2ccccc2)cc1F,2.5
13,OC[C@@H]1[C@@H](O)[C@H](O)[C@@H](O)CN1CCCCCOCc1ccc(-c2ccccc2)c(C(F)(F)F)c1,7
14,C[C@H](OCCCCCN1C[C@H](O)[C@@H](O)[C@H](O)[C@@H]1CO)c1ccc(-c2ccccc2)cc1,> 100
15,OC[C@H]1[C@@H](O)[C@H](O)[C@@H](O)CN1CCCCCOCc1ccc(-c2ccccc2)cc1,> 100
16,OC[C@@H]1[C@@H](O)[C@H](O)[C@@H](O)CN1CCCCCOCc1ccc(-c2ccccc2)cc1,2

# Target: T1, Lysosomal acid glucosylceramidase (Homo sapiens, UniProt P04062)
# T1 sequence (P04062 whole entry): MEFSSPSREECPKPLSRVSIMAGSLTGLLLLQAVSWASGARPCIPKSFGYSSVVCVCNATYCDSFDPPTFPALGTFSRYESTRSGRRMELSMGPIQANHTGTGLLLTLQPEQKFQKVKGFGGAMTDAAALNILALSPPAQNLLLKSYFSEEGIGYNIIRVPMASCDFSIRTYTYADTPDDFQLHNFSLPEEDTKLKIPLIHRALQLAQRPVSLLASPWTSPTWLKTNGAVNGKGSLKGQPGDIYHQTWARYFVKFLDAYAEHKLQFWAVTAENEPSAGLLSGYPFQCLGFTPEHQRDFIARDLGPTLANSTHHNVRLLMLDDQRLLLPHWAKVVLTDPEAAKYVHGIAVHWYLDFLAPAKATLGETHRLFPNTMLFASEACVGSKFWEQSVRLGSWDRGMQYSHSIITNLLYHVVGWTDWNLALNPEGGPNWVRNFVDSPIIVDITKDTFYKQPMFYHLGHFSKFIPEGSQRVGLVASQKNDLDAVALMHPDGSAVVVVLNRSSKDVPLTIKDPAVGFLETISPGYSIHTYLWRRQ
row,Compound,IC50 [µM]
1,OC[C@@H]1[C@@H](O)[C@H](O)[C@@H](O)CN1CCCCCOCC1C2CC3CC(C2)CC1C3 (stereo partly specified),0.4
2,OC[C@H]1[C@@H](O)[C@H](O)[C@@H](O)CN1CCCCCOCc1ccc2ccccc2c1,50
3,OC[C@H]1[C@@H](O)[C@H](O)[C@@H](O)CN1CCCCCOCC1C2CC3CC(C2)CC1C3 (stereo partly specified),10
4,OC[C@H]1[C@@H](O)[C@H](O)[C@@H](O)CN1CCCCCOCc1ccc2ccc3cccc4ccc1c2c34,15

# Target: T2, Beta-glucosidase (Homo sapiens, UniProt Q9HCG7)
# T2 sequence (Q9HCG7 whole entry): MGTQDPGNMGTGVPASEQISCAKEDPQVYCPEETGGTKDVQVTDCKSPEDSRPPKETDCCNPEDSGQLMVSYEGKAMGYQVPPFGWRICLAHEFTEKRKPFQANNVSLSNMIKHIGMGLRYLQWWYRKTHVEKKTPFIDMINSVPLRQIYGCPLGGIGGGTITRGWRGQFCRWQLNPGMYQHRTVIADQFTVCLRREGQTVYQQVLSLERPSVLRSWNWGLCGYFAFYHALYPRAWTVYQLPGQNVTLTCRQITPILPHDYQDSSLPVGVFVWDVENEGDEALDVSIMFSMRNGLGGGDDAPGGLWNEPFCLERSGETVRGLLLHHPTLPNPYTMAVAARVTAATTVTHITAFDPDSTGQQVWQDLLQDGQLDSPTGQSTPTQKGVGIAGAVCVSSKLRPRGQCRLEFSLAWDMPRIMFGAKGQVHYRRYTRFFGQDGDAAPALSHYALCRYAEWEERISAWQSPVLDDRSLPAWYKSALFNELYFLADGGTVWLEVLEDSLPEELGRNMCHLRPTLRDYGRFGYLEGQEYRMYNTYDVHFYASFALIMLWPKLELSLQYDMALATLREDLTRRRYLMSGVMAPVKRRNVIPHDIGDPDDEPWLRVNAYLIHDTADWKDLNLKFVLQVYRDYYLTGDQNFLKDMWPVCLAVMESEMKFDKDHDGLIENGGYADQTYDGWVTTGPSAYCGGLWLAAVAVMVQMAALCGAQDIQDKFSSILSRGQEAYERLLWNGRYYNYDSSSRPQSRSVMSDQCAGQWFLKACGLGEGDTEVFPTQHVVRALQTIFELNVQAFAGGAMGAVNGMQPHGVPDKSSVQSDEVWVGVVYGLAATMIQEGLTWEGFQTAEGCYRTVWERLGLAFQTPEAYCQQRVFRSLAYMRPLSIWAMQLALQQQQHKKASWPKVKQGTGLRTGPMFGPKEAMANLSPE
row,Compound,IC50 [nM]
1,OC[C@@H]1[C@@H](O)[C@H](O)[C@@H](O)CN1CCCCCOCC1C2CC3CC(C2)CC1C3 (stereo partly specified),1
2,OC[C@H]1[C@@H](O)[C@H](O)[C@@H](O)CN1CCCCCOCc1ccc2ccccc2c1,1
3,OC[C@H]1[C@@H](O)[C@H](O)[C@@H](O)CN1CCCCCOCC1C2CC3CC(C2)CC1C3 (stereo partly specified),2
4,OC[C@H]1[C@@H](O)[C@H](O)[C@@H](O)CN1CCCCCOCc1ccc2ccc3cccc4ccc1c2c34,1
5,OC[C@@H]1[C@@H](O)[C@H](O)[C@@H](O)CN1CCCCCOCc1ccc(-c2ccccc2)c(F)c1,0.08
6,OC[C@@H]1[C@@H](O)[C@H](O)[C@@H](O)CN1CCCCCOCc1ccc(-c2ccccc2)cc1F,0.08
7,OC[C@@H]1[C@@H](O)[C@H](O)[C@@H](O)CN1CCCCCOCc1ccc(-c2ccccc2)c(C(F)(F)F)c1,0.08

# Target: Sucrase-isomaltase, intestinal (Homo sapiens, UniProt P14410)
# Sequence (P14410 2-1007 limits assumed): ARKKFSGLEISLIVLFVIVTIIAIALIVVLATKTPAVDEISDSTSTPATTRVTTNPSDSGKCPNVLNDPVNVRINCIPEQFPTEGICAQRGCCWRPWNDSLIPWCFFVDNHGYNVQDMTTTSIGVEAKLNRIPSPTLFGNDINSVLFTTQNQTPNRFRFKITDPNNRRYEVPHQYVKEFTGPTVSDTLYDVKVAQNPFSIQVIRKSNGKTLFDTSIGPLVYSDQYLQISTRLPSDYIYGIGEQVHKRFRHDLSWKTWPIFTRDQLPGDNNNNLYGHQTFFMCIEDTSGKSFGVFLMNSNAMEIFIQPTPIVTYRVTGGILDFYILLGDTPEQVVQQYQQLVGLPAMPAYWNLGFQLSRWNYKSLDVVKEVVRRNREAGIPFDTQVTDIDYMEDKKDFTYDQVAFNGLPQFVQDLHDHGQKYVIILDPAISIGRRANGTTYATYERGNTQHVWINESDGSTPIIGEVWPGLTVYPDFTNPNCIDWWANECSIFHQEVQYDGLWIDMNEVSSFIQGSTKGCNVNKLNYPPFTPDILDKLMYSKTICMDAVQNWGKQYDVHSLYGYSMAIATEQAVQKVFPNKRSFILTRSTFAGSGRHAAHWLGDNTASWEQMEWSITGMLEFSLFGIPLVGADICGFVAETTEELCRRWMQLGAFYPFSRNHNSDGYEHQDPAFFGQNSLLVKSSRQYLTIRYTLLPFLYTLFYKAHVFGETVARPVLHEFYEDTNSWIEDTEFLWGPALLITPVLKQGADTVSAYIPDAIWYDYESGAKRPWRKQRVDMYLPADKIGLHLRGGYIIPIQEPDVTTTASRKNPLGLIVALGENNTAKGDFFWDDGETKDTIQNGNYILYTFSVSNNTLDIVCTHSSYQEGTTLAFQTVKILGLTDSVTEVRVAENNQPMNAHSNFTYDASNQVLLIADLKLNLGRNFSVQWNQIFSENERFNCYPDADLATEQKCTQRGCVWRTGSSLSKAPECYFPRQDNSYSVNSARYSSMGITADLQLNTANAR
# Sequence (P14410 1008-1827 limits assumed): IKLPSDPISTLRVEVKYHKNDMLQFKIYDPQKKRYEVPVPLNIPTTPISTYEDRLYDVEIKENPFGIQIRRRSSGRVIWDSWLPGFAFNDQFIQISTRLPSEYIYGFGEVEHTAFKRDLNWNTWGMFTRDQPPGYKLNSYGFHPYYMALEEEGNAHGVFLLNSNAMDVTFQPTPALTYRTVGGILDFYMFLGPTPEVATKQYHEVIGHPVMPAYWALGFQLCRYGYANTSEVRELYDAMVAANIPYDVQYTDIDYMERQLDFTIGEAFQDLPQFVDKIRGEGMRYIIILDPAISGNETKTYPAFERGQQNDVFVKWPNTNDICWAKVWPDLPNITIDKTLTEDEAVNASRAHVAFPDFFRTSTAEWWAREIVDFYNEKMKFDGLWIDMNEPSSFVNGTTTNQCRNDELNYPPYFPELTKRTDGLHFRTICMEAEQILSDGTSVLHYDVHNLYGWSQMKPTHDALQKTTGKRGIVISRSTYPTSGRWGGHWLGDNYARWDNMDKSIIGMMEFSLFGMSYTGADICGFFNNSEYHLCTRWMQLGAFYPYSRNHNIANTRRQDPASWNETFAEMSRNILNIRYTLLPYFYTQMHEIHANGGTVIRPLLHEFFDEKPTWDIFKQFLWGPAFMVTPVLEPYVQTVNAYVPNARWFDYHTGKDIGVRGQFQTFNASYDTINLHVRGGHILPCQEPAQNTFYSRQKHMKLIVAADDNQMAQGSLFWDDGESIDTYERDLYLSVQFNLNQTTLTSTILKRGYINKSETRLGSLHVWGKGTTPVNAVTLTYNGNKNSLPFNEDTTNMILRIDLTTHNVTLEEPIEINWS
# Experiment: Inhibition of intestinal sucrase (unknown origin)
row,Compound,IC50 [nM]
1,OC[C@H]1[C@@H](O)[C@H](O)[C@@H](O)CN1CCCCCOCc1ccc(-c2ccccc2)c(F)c1 [NIZUBAGLUSTAT],> 100000
2,OC[C@H]1[C@@H](O)[C@H](O)[C@@H](O)CN1CCCCCOCc1ccc(-c2ccccc2)cc1F,> 100000
3,OC[C@H]1[C@@H](O)[C@H](O)[C@@H](O)CN1CCCCCOCc1ccc(-c2ccccc2)c(C(F)(F)F)c1,> 100000
4,OC[C@@H]1[C@@H](O)[C@H](O)[C@@H](O)CN1CCCCCOCc1ccc(-c2ccccc2)c(F)c1,400
5,OC[C@H]1[C@@H](O)[C@H](O)[C@@H](O)CN1CCCC(F)(F)COCc1ccc(-c2ccccc2)cc1,> 100000
6,OC[C@H]1[C@@H](O)[C@H](O)[C@@H](O)CN1CCCCCOCc1ccc(-c2ccccc2)cc1C(F)(F)F,> 100000
7,C[C@@H](OCCCCCN1C[C@H](O)[C@@H](O)[C@H](O)[C@@H]1CO)c1ccc(-c2ccccc2)cc1,> 100000
8,OC[C@@H]1[C@@H](O)[C@H](O)[C@@H](O)CN1CCCCCOCc1cccc(-c2ccccc2)c1,200
9,OC[C@@H]1[C@@H](O)[C@H](O)[C@@H](O)CN1CCCCCOCc1ccccc1-c1ccccc1,200
10,OC[C@@H]1[C@@H](O)[C@H](O)[C@@H](O)CN1CCCCCOCc1ccc(-c2ccccc2)cc1C(F)(F)F,1500
11,OC[C@H]1[C@@H](O)[C@H](O)[C@@H](O)CN1CCCCCOCc1ccccc1-c1ccccc1,95000
12,OC[C@@H]1[C@@H](O)[C@H](O)[C@@H](O)CN1CCCCCOCc1ccc(-c2ccccc2)cc1F,250
13,OC[C@@H]1[C@@H](O)[C@H](O)[C@@H](O)CN1CCCCCOCc1ccc(-c2ccccc2)c(C(F)(F)F)c1,1250
14,C[C@H](OCCCCCN1C[C@H](O)[C@@H](O)[C@H](O)[C@@H]1CO)c1ccc(-c2ccccc2)cc1,> 100000
15,OC[C@H]1[C@@H](O)[C@H](O)[C@@H](O)CN1CCCCCOCc1ccc(-c2ccccc2)cc1,70000
16,OC[C@@H]1[C@@H](O)[C@H](O)[C@@H](O)CN1CCCCCOCc1ccc(-c2ccccc2)cc1,250

# Target: T3, Ceramide glucosyltransferase (Homo sapiens, UniProt Q16739)
# T3 sequence (Q16739 whole entry): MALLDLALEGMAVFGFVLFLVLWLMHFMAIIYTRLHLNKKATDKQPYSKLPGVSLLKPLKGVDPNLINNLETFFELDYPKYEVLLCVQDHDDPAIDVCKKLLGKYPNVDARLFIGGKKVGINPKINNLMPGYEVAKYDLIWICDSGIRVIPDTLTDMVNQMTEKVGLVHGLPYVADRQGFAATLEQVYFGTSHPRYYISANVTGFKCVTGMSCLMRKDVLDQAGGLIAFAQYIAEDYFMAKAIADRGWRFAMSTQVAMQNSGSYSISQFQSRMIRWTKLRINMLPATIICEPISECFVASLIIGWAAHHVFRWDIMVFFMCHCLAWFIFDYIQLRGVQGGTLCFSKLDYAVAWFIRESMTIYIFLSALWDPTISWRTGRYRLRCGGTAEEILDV
row,Compound,IC50 [nM]
1,OC[C@@H]1[C@@H](O)[C@H](O)[C@@H](O)CN1CCCCCOCC1C2CC3CC(C2)CC1C3 (stereo partly specified),300
2,OC[C@H]1[C@@H](O)[C@H](O)[C@@H](O)CN1CCCCCOCc1ccc2ccccc2c1,3
3,OC[C@H]1[C@@H](O)[C@H](O)[C@@H](O)CN1CCCCCOCC1C2CC3CC(C2)CC1C3 (stereo partly specified),80
4,OC[C@H]1[C@@H](O)[C@H](O)[C@@H](O)CN1CCCCCOCc1ccc2ccc3cccc4ccc1c2c34,3

# Target: Lactase/phlorizin hydrolase (Homo sapiens, UniProt P09848)
# Experiment: Inhibition of intestinal lactase (unknown origin)
row,Compound,IC50 [µM]
1,OC[C@H]1[C@@H](O)[C@H](O)[C@@H](O)CN1CCCCCOCc1ccc(-c2ccccc2)c(F)c1 [NIZUBAGLUSTAT],50
2,OC[C@H]1[C@@H](O)[C@H](O)[C@@H](O)CN1CCCCCOCc1ccc(-c2ccccc2)cc1F,60
3,OC[C@H]1[C@@H](O)[C@H](O)[C@@H](O)CN1CCCCCOCc1ccc(-c2ccccc2)c(C(F)(F)F)c1,100
4,OC[C@@H]1[C@@H](O)[C@H](O)[C@@H](O)CN1CCCCCOCc1ccc(-c2ccccc2)c(F)c1,20
5,OC[C@H]1[C@@H](O)[C@H](O)[C@@H](O)CN1CCCC(F)(F)COCc1ccc(-c2ccccc2)cc1,80
6,OC[C@H]1[C@@H](O)[C@H](O)[C@@H](O)CN1CCCCCOCc1ccc(-c2ccccc2)cc1C(F)(F)F,125
7,C[C@@H](OCCCCCN1C[C@H](O)[C@@H](O)[C@H](O)[C@@H]1CO)c1ccc(-c2ccccc2)cc1,45
8,OC[C@@H]1[C@@H](O)[C@H](O)[C@@H](O)CN1CCCCCOCc1cccc(-c2ccccc2)c1,20
9,OC[C@@H]1[C@@H](O)[C@H](O)[C@@H](O)CN1CCCCCOCc1ccccc1-c1ccccc1,17
10,OC[C@@H]1[C@@H](O)[C@H](O)[C@@H](O)CN1CCCCCOCc1ccc(-c2ccccc2)cc1C(F)(F)F,50
11,OC[C@H]1[C@@H](O)[C@H](O)[C@@H](O)CN1CCCCCOCc1ccccc1-c1ccccc1,25
12,OC[C@@H]1[C@@H](O)[C@H](O)[C@@H](O)CN1CCCCCOCc1ccc(-c2ccccc2)cc1F,30
13,OC[C@@H]1[C@@H](O)[C@H](O)[C@@H](O)CN1CCCCCOCc1ccc(-c2ccccc2)c(C(F)(F)F)c1,45
14,C[C@H](OCCCCCN1C[C@H](O)[C@@H](O)[C@H](O)[C@@H]1CO)c1ccc(-c2ccccc2)cc1,> 100
